Assay results published in patent US7153961B2, “Salt and crystalline form thereof of a corticotropin releasing factor receptor antagonist” (Bristol-Myers Squibb Pharma Co., priority 2003, dated 2006).

Experiments:
[1] = hygroscopicity (uptake at 90% relative humidity); assay type: physicochemical
solubility = assay type: physicochemical; conditions: in e.g., polar solvents, water, glycols, and aqueous mixtures

hygroscopicity (uptake) [1]: less than 2%
solubility (solubility): soluble
SMILES: COCCN(CCOC)c1nc(C)nc2c(-c3ccc(OC)cc3C)c(C)nn12.O=S(=O)(O)c1ccccc1 [polymorph H-1, 4-(bis(2-methoxyethyl)amino)-2,7-dimethyl-8-(2-methyl-4-methoxyphenyl)-[1,5-a]-pyrazolo-1,3,5-triazine benzenesulfonate]
